The record followed here is US10835614B2, “Poly(diol fumarates) and poly(diol fumarate-co-succinates)” (William Marsh Rice University, priority 2016, dated 2020).

What all share (experiment): MIC, CLSI M38-A2 broth microdilution antifungal susceptibility testing
On the technique in general: Broth dilution looks for growth in wells or tubes with falling amounts of substance.

In one experiment the test system is Rhiozpus oryzae R0969. The class given is cell-based, R. oryzae. As to conditions: diols tested from 1024 μg/mL to 0.0625 μg/mL, triplicate; for MIC: Rhizopus arrhizus, R0969, read-out: minimum inhibitory concentration (MIC), R. oryzae. The protocol: (§1) A. fumigatus Af293, C. albicans Y4215 and Rhiozpus oryzae R0969, all clinical isolates of pathogenic species, were used to determine the antifungal activity of three different terminal diols: 1,6-hexanediol; 1,8-octanediol; and 1,10-decanediol (all purchased from Sigma-Aldrich, St. Louis, Mo.). Briefly, minimum inhibitory concentration (MIC) was determined following the Clinical Laboratory & Standards Institute (CLSI) M38-A2 broth microdilution antifungal susceptibility testing method. […] The experiment was performed in triplicate for each species and each diol.

Another experiment deals with C. albicans Y4215. Type of experiment: cell-based. As to conditions: diols tested from 1024 μg/mL to 0.0625 μg/mL, triplicate; for MIC: Candida albicans, Y4215, read-out: minimum inhibitory concentration (MIC), C. albicans. The protocol:
as §1

A further experiment has as its system A. fumigatus Af293. The class given is cell-based. The settings on record: diols tested from 1024 μg/mL to 0.0625 μg/mL, triplicate; for MIC: Aspergillus fumigatus, AF293, read-out: minimum inhibitory concentration (MIC), A. fumigatus. The method, then:
as §1

≈ marks a conversion by molar mass, not a printed value.

Regarding `OCCCCCCO` [1,6-Hexanediol, 1,6-hexanediol], in the experiment with Rhiozpus oryzae R0969, the MIC is no less than 1020 µg/mL and the “minimum inhibitory concentration (MIC), R. oryzae” value is given as “did not demonstrate activity”. Also, in the experiment with C. albicans Y4215, the MIC was no less than 1020 µg/mL and the “minimum inhibitory concentration (MIC), C. albicans” value was “did not demonstrate activity”. In addition, in the experiment with A. fumigatus Af293, the MIC was no less than 1020 µg/mL and the “minimum inhibitory concentration (MIC), A. fumigatus” value is “did not demonstrate activity”.

Turning to `OCCCCCCCCO` [1,8-Octanediol, 1,8-octanediol], in the experiment with Rhiozpus oryzae R0969, the MIC was no less than 1020 µg/mL and the “minimum inhibitory concentration (MIC), R. oryzae” value is “did not demonstrate activity”. Moreover, in the experiment on C. albicans Y4215, the MIC is no less than 1020 µg/mL and the “minimum inhibitory concentration (MIC), C. albicans” value was “did not demonstrate activity”. Besides, in the experiment with A. fumigatus Af293, the MIC is no less than 1020 µg/mL and the “minimum inhibitory concentration (MIC), A. fumigatus” value was “did not demonstrate activity”.

As to `OCCCCCCCCCCO` [1,10-Decanediol, 1,10-decanediol], the MIC is 1020 µg/mL (≈ 5.88 mM) in the experiment with Rhiozpus oryzae R0969, no less than 1020 µg/mL in the experiment with C. albicans Y4215 and 256 µg/mL (≈ 1.47 mM) with A. fumigatus Af293.
